{"source": "patent US20240091203A1", "about": "“METHODS FOR TREATING NON-OBSTRUCTIVE HYPERTROPHIC CARDIOMYOPATHY” (Cytokinetics, Incorporated, priority 2022, published 2024)", "assay_type_in_all_cases": "in vivo, human", "key": {"[1]": {"experiment": "Phase 1 plasma pharmacokinetics, single-ascending dose (SAD) cohorts", "settings": "for AUC24 / Cmax / AUCinf / CL/F / t1/2 / Tmax: SAD; for CL/F / t1/2: mean ± SD; for Tmax: median (range)", "experimental": "Single-ascending dose (SAD) cohorts. The SAD portion of the study used a randomized, double-blind, placebo-controlled, sequential, escalating-dose design, in which participants received single-ascending oral doses of the study drug. Seven cohorts were dosed in sequence (FIG. 2).\nPharmacokinetic analyses. For all study groups, blood samples for PK assessment were obtained pre-dose, up to 12 times daily on day 1, and then at regular intervals throughout the study. Blood samples were collected according to the following schedule: SAD Cohorts: Day 1: pre-dose and 0.25, 0.5, 1, 1.5, 2, 2.5, 3, 4, 6, 8, 12, 16, 24, 36, 48, 72, 96, and 216 h post dose. MAD Cohorts (14-day Dosing): Day 1: pre-dose and 0.25, 0.5, 1, 1.5, 2, 2.5, 3, 4, 6, 8, and 12 h post dose; Days 2, 4, 5, 6, and 9: pre-dose (corresponding to trough samples following dosing on days 1, 3, 4, 5, and 8) and 1.5 h post dose; Days 3, 7, 8, 10, 11, 12, and 13: pre-dose (corresponding to trough samples following dosing on days 2, 6, 7, 9, 10, 11, and 12); Day 14: pre-dose and 0.25, 0.5, 1.5, 2, 2.5, 3, 4, 6, 8, 12, 16, 24, 36, 48, 72, and 168 h post dose. MAD Cohort (17-Day Dosing): Day 1: pre-dose and 0.25, 0.5, 1, 1.5, 2, 2.5, 3, 4, 6, 8, and 12 h post dose; Days 2, 4, 5, 6, and 9: pre-dose (corresponding to trough samples following dosing on days 1, 3, 4, 5, and 8) and 1.5 h post dose; Days 3, 7, 8, 10, 11, 12, 13, 14, 15, and 16: pre-dose (corresponding to trough samples following dosing on days 2, 6, 7, 9, 10, 11, and 12); Day 17: pre-dose and 0.25, 0.5, 1.5, 2, 2.5, 3, 5, 7, 9, 12, 24, 36, 48, 72, and 168 h post dose. CYPD6-PM Cohort: Day 1: pre-dose and 0.25, 0.5, 1, 1.5, 2, 2.5, 3, 4, 6, 8, 12, 16, 24, 36, 48, 72, 96, 216, 312, and 552 h post dose. Food-Effect Cohort: Day 1: pre-dose and 0.25, 0.5, 1, 1.5, 2, 2.5, 3, 4, 6, 8, 12, 16, 24, 36, 48, 72, 96, 144, and 216 h post dose. Standard non-compartmental methods were used to calculate PK parameters using Phoenix® WinNonlin® Version 7.0; actual sample collection times were utilized.\nStatistical Analysis. The sample size chosen for this study was based upon precedent set by other first-in-human PK studies of similar nature and was not based on power calculations. […] All participants who received ≥1 dose of the study drug and had ≥1 evaluable PK plasma profile were included in the PK analysis set. […]"}, "[2]": {"experiment": "Phase 1 plasma pharmacokinetics, food-effect cohort", "settings": "10 mg; for AUCinf / AUC24 / Cmax: geometric mean; for CL/F / t1/2: mean ± SD", "experimental": "Food-effect cohort. […] Participants were randomized in a 1:1 ratio to 1 of 2 sequences: fasted/fed or fed/fasted.\nPharmacokinetic analyses. For all study groups, blood samples for PK assessment were obtained pre-dose, up to 12 times daily on day 1, and then at regular intervals throughout the study. Blood samples were collected according to the following schedule: SAD Cohorts: Day 1: pre-dose and 0.25, 0.5, 1, 1.5, 2, 2.5, 3, 4, 6, 8, 12, 16, 24, 36, 48, 72, 96, and 216 h post dose. […] CYPD6-PM Cohort: Day 1: pre-dose and 0.25, 0.5, 1, 1.5, 2, 2.5, 3, 4, 6, 8, 12, 16, 24, 36, 48, 72, 96, 216, 312, and 552 h post dose. Food-Effect Cohort: Day 1: pre-dose and 0.25, 0.5, 1, 1.5, 2, 2.5, 3, 4, 6, 8, 12, 16, 24, 36, 48, 72, 96, 144, and 216 h post dose. Standard non-compartmental methods were used to calculate PK parameters using Phoenix® WinNonlin® Version 7.0; actual sample collection times were utilized."}, "[3]": {"test_system": "patients with symptomatic non-obstructive HCM (nHCM) or HCM with MVO", "experiment": "Phase 2 trial (Example 2): NYHA Functional Classification", "excerpt": "Other exploratory endpoints included: (i) Change in NYHA Functional Classification from baseline to Week 10; and (ii) For patients with baseline NYHA Class III disease, percentage with improvement to NYHA Class I or II disease at Week 10."}, "[4]": {"test_system": "patients with symptomatic non-obstructive HCM (nHCM) or HCM with MVO", "experiment": "Phase 2 trial (Example 2): exploratory responder analysis in subgroups", "experimental": "An exploratory responder analysis was performed to consider treatment effect in certain subgroups of patients."}, "[5]": {"settings": "single oral 1 mg, geometric mean (geometric CV %), n = 6"}, "[6]": {"settings": "single oral 3 mg, geometric mean (geometric CV %), n = 6"}, "[7]": {"settings": "single oral 25 mg, geometric mean (geometric CV %), n = 6"}, "[8]": {"settings": "single oral 40 mg, geometric mean (geometric CV %), n = 6"}, "[9]": {"settings": "single oral 50 mg, geometric mean (geometric CV %), n = 11"}, "[10]": {"settings": "food-effect cohort, Fasted, n = 4"}, "[11]": {"settings": "food-effect cohort, Fasted, n = 10"}, "[12]": {"settings": "food-effect cohort, Fed, n = 12"}}, "note": "“Also recorded” adds a separate entry of the source.", "data": [{"compound": "CCc1nc(-c2ccc3c(c2)CC[C@H]3NC(=O)c2cnn(C)c2)no1", "note": "[aficamten, (R)—N-(5-(5-ethyl-1,2,4-oxadiazol-3-yl)-2,3-dihydro-1H-inden-1-yl)-1-methyl-1H-pyrazole-4-carboxamide]", "values": [{"measurement": "maximum time to maximum observed concentration across all participants", "setting": "[1]; SAD cohorts", "value": 4.0, "unit": "h"}, {"measurement": "AUC24", "setting": "[1]; [5]", "value": "50 (20) ng · h/ml"}, {"measurement": "Cmax", "setting": "[1]; [5]", "value": "5.8 (38.4) ng/ml"}, {"measurement": "AUCinf", "setting": "[1]; single oral 3 mg, geometric mean (geometric CV %), n = 5", "value": "823 (61) ng · h/ml"}, {"measurement": "AUC24", "setting": "[1]; [6]", "value": "174 (27) ng · h/ml"}, {"measurement": "Cmax", "setting": "[1]; [6]", "value": "26.1 (82.4) ng/ml"}, {"measurement": "CL/F", "setting": "[1]; single oral 3 mg, n = 5", "value": "4.2 ± 3.1", "unit": "L/h"}, {"measurement": "t1/2", "setting": "[1]; single oral 3 mg, n = 5", "value": "75.1 ± 21.8", "unit": "h"}, {"measurement": "Tmax", "setting": "[1]; single oral 3 mg, n = 6", "value": "1.3 (0.5, 2.6) h"}, {"measurement": "AUC24", "setting": "[1]; single oral 10 mg (extensive metabolizers), geometric mean (geometric CV %), n = 6", "value": 679, "unit": "ng·h/mL"}, {"measurement": "t1/2", "setting": "[1]; single oral 10 mg (extensive metabolizers), n = 4", "value": "84.7 ± 17.7", "unit": "h"}, {"measurement": "AUCinf", "setting": "[1]; single oral 10 mg, geometric mean (geometric CV %), n = 4", "value": "3,434 (24) ng · h/ml"}, {"measurement": "Cmax", "setting": "[1]; single oral 10 mg, geometric mean (geometric CV %), n = 6", "value": "70.5 (69.0) ng/ml"}, {"measurement": "CL/F", "setting": "[1]; single oral 10 mg, n = 4", "value": "3.0 ± 0.7", "unit": "L/h"}, {"measurement": "Tmax", "setting": "[1]; single oral 10 mg, n = 6", "value": "2.8 (0.5, 3.0) h"}, {"measurement": "AUC24", "setting": "[1]; [7]", "value": "1,493 (15) ng · h/ml"}, {"measurement": "AUCinf", "setting": "[1]; [7]", "value": "7,113 (15) ng · h/ml"}, {"measurement": "Cmax", "setting": "[1]; [7]", "value": "192.6 (23.3) ng/ml"}, {"measurement": "CL/F", "setting": "[1]; single oral 25 mg, n = 6", "value": "3.6 ± 0.5", "unit": "L/h"}, {"measurement": "Tmax", "setting": "[1]; single oral 25 mg, n = 6", "value": "1.8 (0.5, 4.0) h"}, {"measurement": "AUCinf", "setting": "[1]; single oral 40 mg, geometric mean (geometric CV %), n = 5", "value": "11,860 (20) ng · h/ml"}, {"measurement": "AUC24", "setting": "[1]; [8]", "value": "2,532 (13) ng · h/ml"}, {"measurement": "Cmax", "setting": "[1]; [8]", "value": "383.2 (67.9) ng/ml"}, {"measurement": "t1/2", "setting": "[1]; single oral 40 mg, n = 4", "value": "79.2 ± 18.5", "unit": "h"}, {"measurement": "CL/F", "setting": "[1]; single oral 40 mg, n = 5", "value": "3.4 ± 0.6", "unit": "L/h"}, {"measurement": "AUCinf", "setting": "[1]; single oral 50 mg, geometric mean (geometric CV %), n = 9", "value": "13,740 (35) ng · h/ml"}, {"measurement": "AUC24", "setting": "[1]; [9]", "value": "2,833 (26) ng · h/ml"}, {"measurement": "Cmax", "setting": "[1]; [9]", "value": "359.4 (38.9) ng/ml"}, {"measurement": "CL/F", "setting": "[1]; single oral 50 mg, n = 9", "value": "3.8 ± 1.1", "unit": "L/h"}, {"measurement": "t1/2", "setting": "[1]; single oral 50 mg, n = 9", "value": "80.4 ± 14.9", "unit": "h"}, {"measurement": "Tmax", "setting": "[1]; single oral 50 mg, n = 11", "value": "1.0 (0.5, 2.5) h"}, {"measurement": "Tmax", "setting": "[1]; single oral 75 mg, n = 1", "value": "0.5 (0.5, 0.5) h"}, {"measurement": "AUC24", "setting": "[1]; single oral 75 mg, n = 1", "value": "4,556 (—) ng · h/ml"}, {"measurement": "Cmax", "setting": "[1]; single oral 75 mg, n = 1", "value": "1,220 (—) ng/ml"}, {"measurement": "dose proportionality of Cmax and exposure (AUC24)", "setting": "[1]; single oral doses between 1 mg and 50 mg", "value": "dose-proportional; also recorded: linear kinetics"}, {"measurement": "effect of food on pharmacokinetics", "setting": "[2]; fed (high-fat breakfast) versus fasted", "value": "Neither food nor CYP2D6-PM phenotype had a clinically meaningful impact; also recorded: little effect on AUC; also recorded: no significant effect of food"}, {"measurement": "increase in Cmax when taken with food", "setting": "[2]; fed versus fasted", "value": "approximately 30%"}, {"measurement": "AUCinf", "setting": "[2]; [10]", "value": 3674, "unit": "ng·h/mL"}, {"measurement": "AUC24", "setting": "[2]; [11]", "value": "601 (33) ng · h/ml"}, {"measurement": "Cmax", "setting": "[2]; [11]", "value": 50.6, "unit": "ng/mL"}, {"measurement": "CL/F", "setting": "[2]; [10]", "value": "2.8 ± 0.6", "unit": "L/h"}, {"measurement": "t1/2", "setting": "[2]; [10]", "value": "84.4 ± 16.4", "unit": "h"}, {"measurement": "Tmax", "setting": "[2]; food-effect cohort, Fasted, median, n = 10", "value": 2.3, "unit": "h"}, {"measurement": "AUCinf", "setting": "[2]; food-effect cohort, Fed, n = 7", "value": 3413, "unit": "ng·h/mL"}, {"measurement": "AUC24", "setting": "[2]; [12]", "value": "631 (25) ng · h/ml"}, {"measurement": "Cmax", "setting": "[2]; [12]", "value": 65.0, "unit": "ng/mL"}, {"measurement": "CL/F", "setting": "[2]; food-effect cohort, Fed, n = 7", "value": "3.1 ± 0.9", "unit": "L/h"}, {"measurement": "t1/2", "setting": "[2]; food-effect cohort, Fed, n = 7", "value": "78.0 ± 8.1", "unit": "h"}, {"measurement": "patients with a change of ≥1 NYHA Class", "setting": "[3]; 22 of 41 patients, interim", "value": 54, "unit": "%"}, {"measurement": "patients with functional improvement of ≥1 NYHA class", "setting": "[3]; Week 10, second interim, p=0.011 vs assumed 37% placebo effect", "value": 56, "unit": "%"}, {"measurement": "patients achieving NYHA Class 1 (asymptomatic)", "setting": "[3]; by Week 10, second interim", "value": 28, "unit": "%"}, {"measurement": "patients who improved from NYHA Class II to I", "setting": "[3]; interim", "value": 8, "unit": "patients"}, {"measurement": "patients who improved from NYHA Class III to I", "setting": "[3]; interim", "value": 4, "unit": "patients"}, {"measurement": "patients who improved from NYHA Class III to II", "setting": "[3]; interim", "value": 12, "unit": "patients"}, {"measurement": "responder analysis: treatment effect in other subgroups", "setting": "[4]; beta-blockers or not, elevated TnI or E/e′ or not, genetic or family history of HCM or not", "value": "Consistent treatment effects"}, {"measurement": "responder analysis: treatment effect by BMI", "setting": "[4]; patients with BMI ≥30 compared to BMI <30", "value": "potential differential treatment effect"}]}]}
